Assay results as given in US20060035925A1, “SUBSTITUTED 4H-CHROMENES AND ANALOGS AS ACTIVATORS OF CASPASES AND INDUCERS OF APOPTOSIS AND THE USE THEREOF” (Cytovia, Inc., priority 1999, published 2006).
Like-named read-outs stand apart in the source and are kept apart here.

How the values were obtained:
[1] = tested on: Human breast cancer cell line T-47D; assay: Caspase cascade activation assay (N-(Ac-DEVD)-N'-ethoxycarbonyl-R110 fluorogenic substrate) in T-47D cells; type: cell-based; conditions: for Caspase activity (Ratio) T-47D: 24 h incubation with compound, ratio of net RFU (T=3 h) of test compound to control; for EC50: 24 h incubation, sigmoidal dose-response, read-out: Caspase potency EC50 (nM) T-47D
Protocol: (§1) Human breast cancer cell lines T-47D and ZR-75-1 were grown according to media component mixtures designated by American Type Culture Collection +10% FCS (Invitrogen Corporation), in a 5% CO2-95% humidity incubator at 37° C. T-47D and ZR-75-1 cells were maintained at a cell density between 30 and 80% confluency at a cell density of 0.1 to 0.6×10^6 cells/ml. Cells were harvested at 600×g and resuspended at 0.65×10^6 cells/mL into appropriate media +10% FCS. An aliquot of 45 μl of cells was added to a well of a 96-well microtiter plate containing 5 μl of a 10% DMSO in RPMI-1640 media solution containing 0.16 to 10 μM of 2-amino-3-cyano-4-(3-bromo-4,5-dimethoxyphenyl)-4H-indolo[7,6-b]pyran (Example 42) or other test compound (0.016 to 1 μM final). An aliquot of 45 μl of cells was added to a well of a 96-well microtiter plate containing 5 μl of a 10% DMSO in RPMI-1640 media solution without test compound as the control sample. The samples were mixed by agitation and then incubated at 37° C. for 24 h in a 5% CO2-95% humidity incubator. After incubation, the samples were removed from the incubator and 50 μl of a solution containing 20 μM of N-(Ac-DEVD)-N′-ethoxycarbonyl-R110 (SEQ ID NO:1) fluorogenic substrate (Cytovia, Inc.; WO99/18856), 20% sucrose (Sigma), 20 mM DTT (Sigma), 200 mM NaCl (Sigma), 40 mM Na PIPES buffer pH 7.2 (Sigma), and 500 μg/ml lysolecithin (Calbiochem) was added. The samples were mixed by agitation and incubated at room temperature. Using a fluorescent plate reader (Model 1420 Wallac Instruments), an initial reading (T=0) was made approximately 1-2 min after addition of the substrate solution, employing excitation at 485 nm and emission at 530 nm, to determine the background fluorescence of the control sample. After the 3 h incubation, the samples were read for fluorescence as above (T=3 h).
(§2) The Relative Fluorescence Unit values (RFU) were used to calculate the sample readings as follows: RFU(T=3h)−Control RFU(T=0)=Net RFU(T=3h)
(§3) The activity of caspase cascade activation was determined by the ratio of the net RFU value for 2-amino-3-cyano-4-(3-bromo-4,5-dimethoxyphenyl)-4H-indolo[7,6-b]pyran or other test compound to that of control samples. The EC50 (nM) was determined by a sigmoidal dose-response calculation (Prism 2.0, GraphPad Software Inc.).

[2] = tested on: Human breast cancer cell line ZR-75-1; assay: Caspase cascade activation assay (N-(Ac-DEVD)-N'-ethoxycarbonyl-R110 fluorogenic substrate) in ZR-75-1 cells; type: cell-based; conditions: ZR-75-1 cells; for EC50: 24 h incubation, sigmoidal dose-response, read-out: Caspase potency EC50 (nM) ZR-75-1; for Caspase activity (Ratio) ZR-75-1: 24 h incubation with compound, ratio of net RFU (T=3 h) of test compound to control
Protocol: as §1, §2, §3

| Compound | Caspase activity (Ratio) T-47D [1] | EC50 ([1]; Homo sapiens, T47D, 24 h) | EC50 ([2]; Homo sapiens, ZR-75-1, 24 h) | Caspase activity (Ratio) ZR-75-1 [2] | EC50 [1] | EC50 [2] |
| --- | --- | --- | --- | --- | --- | --- |
| Cc1cc2c(cc1Cl)C(c1ccccc1)C(C#N)=C(N)O2 (stereo not shown) [Example 47, 2-Amino-6-chloro-3-cyano-7-methyl-4-phenyl-4H-chromene] | 1.9 | > 1000 nM | 552 nM | 7.3 |  |  |
| CCNc1ccc2c(c1)OC(N)=C(C#N)C2c1cccc(C#N)c1 (stereo not shown) [Example 16, 2-Amino-3-cyano-7-ethylamino-4-(3-cyanophenyl)-4H-chromene] | 7 | 11 nM | 6 nM | 6.7 |  |  |
| 2-Amino-4-(3-bromo-4,5-dimethoxyphenyl)-3-cyano-9-methyl-4H-imidazo[4,5-b]chromene [Example 75] | 6.3 |  |  | 3.4 | 345 nM | 146 nM |
| COc1ccc2c(c1)OC(N)=C(C#N)C2c1cccc(F)c1 (stereo not shown) [Example 2N, 2-Amino-3-cyano-7-methoxy-4-(3-fluorophenyl)-4H-chromene] | 4.2 | 57 nM | 47 nM | 6.8 |  |  |
| N#CC1=C(N)Oc2cc(N)ccc2C1c1cc(Cl)cc(Cl)c1 (stereo not shown) [Example 2D, 2-Amino-3-cyano-7-amino-4-(3,5-dichlorophenyl)-4H-chromene] | 4.4 | 78 nM | 50 nM | 4.4 |  |  |
| Cc1cncc(C2C(C#N)=C(N)Oc3cc(N)ccc32)c1 (stereo not shown) [Example 34, 2,7-Diamino-3-cyano-4-(5-methyl-3-pyridyl)-4H-chromene] | 4.7 | 107 nM | 43 nM | 5.6 |  |  |
| COc1ccc2c(c1)OC(N)=C(C#N)C2c1cccc([N+](=O)[O-])c1 (stereo not shown) [Example 11, 2-Amino-3-cyano-7-methoxy-4-(3-nitrophenyl)-4H-chromene] | 4.5 | 45 nM | 28 nM | 6.6 |  |  |
| Cc1cccc(C2C(C#N)=C(N)Oc3cc(N)ccc32)c1 (stereo not shown) [Example 23, 2,7-Diamino-3-cyano-4-(3-methylphenyl)-4H-chromene] | 4.6 | 146 nM | 102 nM | 5.2 |  |  |
| COc1ccc2c(c1)OC(N)=C(C#N)C2c1cccnc1 (stereo not shown) [Example 17, 2-Amino-3-cyano-7-methoxy-4-(3-pyridyl)-4H-chromene] | 5.9 | 254 nM | 147 nM | 8.2 |  |  |
| COc1cc(C2C(C#N)=C(N)Oc3cc(N(C)C)ccc32)cc(Br)c1O (stereo not shown) [Example 48, 2-Amino-4-(3-bromo-4-hydroxy-5-methoxyphenyl)-3-cyano-7-dimethylamino-4H-chromene] | 10.5 | 36.8 nM | 23.8 nM | 6.1 |  |  |
| N#CC1=C(N)Oc2cc(N)ccc2C1c1cccc(Br)c1 (stereo not shown) [Example 19, 2,7-Diamino-3-cyano-4-(3-bromophenyl)-4H-chromene] | 5.9 | 274 nM | 206 nM | 9.2 |  |  |
| CCNc1ccc2c(c1)OC(N)=C(C#N)C2c1cc(OC)cc(OC)c1 (stereo not shown) [Example 14, 2-Amino-3-cyano-7-ethylamino-4-(3,5-dimethoxyphenyl)-4H-chromene] | 7 | 10 nM | 10 nM | 7.7 |  |  |
| COc1cc(C2C(C#N)=C(N)Oc3c2ccc(O)c3O)cc(Br)c1OC (stereo not shown) [Example 2C, 2-Amino-3-cyano-7,8-dihydroxy-4-(3-bromo-4,5-dimethoxyphenyl)-4H-chromene] | 1.1 | > 10000 nM | > 10000 nM | 0.9 |  |  |
| COc1cc(C2C3=CC=C4C=CN=C4C3OC(N)=C2C#N)cc(Br)c1OC (stereo not shown) [Example 42, 2-Amino-3-cyano-4-(3-bromo-4,5-dimethoxyphenyl)-4H-indolo[7,6-b]pyran] | 7.6 | 30 nM | 25 nM | 13.1 |  |  |
| CCNc1ccc2c(c1)OC(N)=C(C#N)C2c1cncc(Br)c1 (stereo not shown) [Example 32, 2-Amino-3-cyano-4-(5-bromo-3-pyridyl)-7-ethylamino-4H-chromene] | 7.2 | 17 nM | 4 nM | 9.5 |  |  |
| COc1cc(C2C(C#N)=C(N)Oc3cc(N)ccc32)cc(Br)c1O (stereo not shown) [Example 49, 3-Cyano-4-(3-bromo-4-hydroxy-5-methoxyphenyl)-2,7-diamino-4H-chromene] | 10.1 | 67.7 nM | 35.9 nM | 5.8 |  |  |
| COc1cc(C2C(C#N)=C(N)Oc3cc(O)ccc32)cc(Br)c1OC (stereo not shown) [Example 1, 2-Amino-3-cyano-7-hydroxy-4-(3-bromo-4,5-dimethoxyphenyl)-4H-chromene] | 5.1 | 153 nM | 94 nM | 10.8 |  |  |
| CCNc1ccc2c(c1)OC(N)=C(C#N)C2c1cccc(Cl)c1 (stereo not shown) [Example 8, 2-Amino-3-cyano-7-ethylamino-4-(3-chlorophenyl)-4H-chromene] | 8.5 | 126 nM | 62 nM | 10.1 |  |  |
| CCNc1ccc2c(c1)OC(N)=C(C#N)C2c1cc(OC)c(OC)c(OC)c1 (stereo not shown) [Example 13, 2-Amino-3-cyano-7-ethylamino-4-(3,4,5-trimethoxyphenyl)-4H-chromene] | 4.4 | 25 nM | 14 nM | 7.0 |  |  |
| COc1cc(C2C(C#N)=C(N)Oc3c2ccc2ccn(C)c32)cc(Br)c1OC (stereo not shown) [Example 77, 2-Amino-4-(3-bromo-4,5-dimethoxyphenyl)-3-cyano-9-methyl-4H-pyrrolo[3,2-h]chromene] | 4.2 | 27.7 nM | 23.9 nM | 3.1 |  |  |
| COC(=O)C1=C(N)Oc2c(ccc3[nH]ccc23)C1c1cc(Br)c(OC)c(OC)c1 (stereo not shown) [Example 73] | 7.5 |  |  | 9.0 | 29.4 nM | 26.7 nM |
| CCNc1ccc2c(c1)OC(N)=C(C#N)C2c1cccc([N+](=O)[O-])c1 (stereo not shown) [Example 9, 2-Amino-3-cyano-7-ethylamino-4-(3-nitrophenyl)-4H-chromene] | 7.6 | 116 nM | 50 nM | 12.8 |  |  |
